# In patent US20240100044A1, “HYDROGEL COMPOSITION AND USES THEREOF IN THE PREVENTION AND/OR TREATMENT OF SKIN DAMAGE CAUSED BY RADIATION” (TARIAN PHARMA, priority 2021, published 2024):
# Read-outs that look alike come from different tables or passages of the source. Marks after values point to notes of the source that are not given here.
# Assays:
# [1] = test system: alpha2-adrenergic receptors; conditions: cited from earlier work
# radiation dermatitis = conditions: topical, applied up to 20 minutes before radiotherapy; cited from earlier work
# [2] = value as per literature (ALPHAGAN Product Monograph), conditions not specified, cited from earlier work
# [3] = Procedure: (§1) Saturated solutions were prepared by adding an excess of drug substance to various solvents and storing the samples in sealed containers for 24 hours at room temperature with continuous stirring.
# (§2) After the equilibration period, samples were centrifuged or filtered and the brimonidine tartrate was quantified using the Thermo Scientific Dionex U3000 UPLC-UV system. The chromatographic conditions are described below: • Column: Sunfire C18 150 mm×4.6 mm, 3.5 μm • Temperature of column: 40° C. • Volume injected: […] • Flow: 0.8 ml/minute • UV detection: 246 nm
# Saturated solutions were prepared, incubated and measured as described in Example 1.
# [4] = remark: listed apart in the source
# Procedure: as §1
# The majority of the samples were stirred using a magnetic stirrer; however, in the case of viscous samples (such as pure glycerine), the samples were stirred using a rotary mixer. The speed of the rotary mixer was adjusted to ensure proper mixing of the sample, this generally involving slower rotation speeds.
# as §2
compound,measurement,setting,value
Brc1c(NC2=NCCN2)ccc2nccnc12 [Brimonidine],selectivity for alpha2-adrenergic receptors over alpha1-adrenergic receptors,[1],"1,000 times"
CNC[C@H](O)c1ccc(O)c(O)c1 [epinephrine],patients showing a significant benefit,radiation dermatitis,50%
brimonidine tartrate,Max solubility,[2]; in Propylene glycol,~0.1**** % (w/w)
same,Max solubility,[2]; in WATER,3.4**** % (w/w)
same,active agent solubilised by non-volatile mixture compared to the aqueous mixture,[3]; PG/PEG-400/GLY/PVP (20:10:5:1) vs PG/PEG-400/GLY/PVP/water (20:10:5:1:40),approximately 22%
same,saturation in the aqueous solvent phase of the primary formulation,[3]; concentration of 1% brimonidine tartrate,around 30%
same,saturation in the aqueous solvent phase of the primary formulation,[3]; concentration of 1.5% brimonidine tartrate,~50%
same,Max solubility,[3]; in PG/PEG-400 (20:10),0.45 % (w/w)
same,Max solubility,[3]; in PG/PEG-400/GLY (20:10:5),0.66 % (w/w)
same,Max solubility,[3]; in PG/PEG-400/GLY/PVP (20:10:5:1),0.72 % (w/w)
same,Max solubility,[3]; in PG/PEG-400/GLY/PVP/Water (20:10:5:1:40),3.3 % (w/w)
same,Max solubility,[3]; in PG/PEG-400/PVP (20:10:1),0.45 % (w/w)
same,Max solubility,"[4]; in ARLASOLVE DMI, 24 hours, room temperature",0.01 % (w/w)
same,Max solubility,"[4]; in DMSO, visual solubility, UPLC-UV not performed",>8.5*** % (w/w)
same,Max solubility,"[4]; in GLUCAM E10, 24 hours, room temperature",0.72* % (w/w)
same,Max solubility,"[4]; in GLUCAM E20, 24 hours, room temperature",0.88* % (w/w)
same,Max solubility,"[4]; in Glycerine (GLY, 20 ml scintillation flask)",1.61 % (w/w)
same,Max solubility,"[4]; in Hexylene Glycol, 24 hours, room temperature",0.01 % (w/w)
same,Max solubility,"[4]; in Na Pyrrolidone Carboxylate (AJIDEW L50), 24 hours, room temperature",0.06 % (w/w)
same,Max solubility,"[4]; in PEG-400, 24 hours, room temperature",0.10 % (w/w)
same,Max solubility,"[4]; in Propylene Carbonate, 24 hours, room temperature",0.01** % (w/w)
same,Max solubility,"[4]; in Propylene glycol, measured value",0.56 % (w/w)
same,Max solubility,"[4]; in TRANSCUTOL, 24 hours, room temperature",0.05 % (w/w)
same,Max solubility,"[4]; in WATER, measured value",6.40 % (w/w)
